Assay results: PubChem BioAssay AID1963966 (Molecular Pharmacology Branch, DTP, NCI, 2024)

System: 935938-334-R-J1-PDC spheroids with HUVEC/MSC, viability
Assay: Anticancer human tumor 935938-334-R-J1-PDC patient-derived small intestine adenocarcinoma cell line growth inhibition [PI3K]
Conditions: for IC50: curve of first compound; for viability, T/C: stronger effect = lower value; active = viability on the fitted dose curve at most 10% of control; inactive = the rest
Method in brief: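 Combination activity was assessed by viability in multicellular tumor spheroids carrying HUVEC and MSC components. Agents were tested with PI3K inhibitors from a Cmax-based top dose (or 10 microM) downward in half-log increments.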

[1] = second compound 0.0316 µM, first compound 0.0316 µM
[2] = second compound 0.0316 µM, first compound 0.1 µM
[3] = second compound 0.1 µM, first compound 0.0316 µM
[4] = second compound 0.1 µM, first compound 0.1 µM
[5] = second compound 0.316 µM, first compound 0.0316 µM
[6] = second compound 0.316 µM, first compound 0.1 µM
[7] = second compound 1 µM, first compound 0.0316 µM
[8] = second compound 1 µM, first compound 0.1 µM
[9] = second compound 3.16 µM, first compound 0.0316 µM
[10] = second compound 3.16 µM, first compound 0.1 µM
[11] = second compound 10 µM, first compound 0.0316 µM
[12] = second compound 10 µM, first compound 0.1 µM
[13] = second compound 0.0316 µM, first compound 0.316 µM
[14] = second compound 0.0316 µM, first compound 1 µM
[15] = second compound 0.0316 µM, first compound 3.16 µM
[16] = second compound 0.0316 µM, first compound 10 µM
[17] = second compound 0.1 µM, first compound 0.316 µM
[18] = second compound 0.1 µM, first compound 1 µM
[19] = second compound 0.1 µM, first compound 3.16 µM
[20] = second compound 0.1 µM, first compound 10 µM
[21] = second compound 0.316 µM, first compound 0.316 µM
[22] = second compound 0.316 µM, first compound 1 µM
[23] = second compound 0.316 µM, first compound 3.16 µM
[24] = second compound 0.316 µM, first compound 10 µM
[25] = second compound 1 µM, first compound 0.316 µM
[26] = second compound 1 µM, first compound 1 µM
[27] = second compound 1 µM, first compound 3.16 µM
[28] = second compound 1 µM, first compound 10 µM
[29] = second compound 3.16 µM, first compound 0.316 µM
[30] = second compound 3.16 µM, first compound 1 µM
[31] = second compound 3.16 µM, first compound 3.16 µM
[32] = second compound 3.16 µM, first compound 10 µM
[33] = second compound 10 µM, first compound 0.316 µM
[34] = second compound 10 µM, first compound 1 µM
[35] = second compound 10 µM, first compound 3.16 µM
[36] = second compound 10 µM, first compound 10 µM
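Also: compound exposure lasted seven days before viability was read.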
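For viability, T/C in this document: percent of vehicle DMSO treated spheroid viability so 100% = untreated.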

Cn1ncnc1[C@H]1c2n[nH]c(=O)c3cc(F)cc(c23)N[C@@H]1c1ccc(F)cc1 + Cc1nc(NC(=O)N2CCCC2C(N)=O)sc1-c1ccnc(C(C)(C)C(F)(F)F)c1
0.0161 µM: IC50 (second compound 3.16 µM)
< 0.000316 µM: IC50 (second compound 10 µM)
inactive: viability, T/C (second compound 0.0316 µM, first compound 0.000316 µM) 83.6% | viability, T/C (second compound 0.0316 µM, first compound 0.001 µM) 95.8% | viability, T/C (second compound 0.0316 µM, first compound 0.00316 µM) 112% | viability, T/C (second compound 0.0316 µM, first compound 0.01 µM) 87.8% | viability, T/C [1] 72.1% | viability, T/C [2] 99% | viability, T/C (second compound 0.1 µM, first compound 0.000316 µM) 81% | viability, T/C (second compound 0.1 µM, first compound 0.001 µM) 98.7% | viability, T/C (second compound 0.1 µM, first compound 0.00316 µM) 99.9% | viability, T/C (second compound 0.1 µM, first compound 0.01 µM) 67.5% | viability, T/C [3] 84.2% | viability, T/C [4] 83.5% | viability, T/C (second compound 0.316 µM, first compound 0.000316 µM) 89.1% | viability, T/C (second compound 0.316 µM, first compound 0.001 µM) 67.3% | viability, T/C (second compound 0.316 µM, first compound 0.00316 µM) 78% | viability, T/C (second compound 0.316 µM, first compound 0.01 µM) 61.4% | viability, T/C [5] 69.7% | viability, T/C [6] 78.7% | viability, T/C (second compound 1 µM, first compound 0.000316 µM) 62.2% | viability, T/C (second compound 1 µM, first compound 0.001 µM) 70% | viability, T/C (second compound 1 µM, first compound 0.00316 µM) 67.2% | viability, T/C (second compound 1 µM, first compound 0.01 µM) 57.6% | viability, T/C [7] 60% | viability, T/C [8] 55.4% | viability, T/C (second compound 3.16 µM, first compound 0.000316 µM) 63.1% | viability, T/C (second compound 3.16 µM, first compound 0.001 µM) 53.7% | viability, T/C (second compound 3.16 µM, first compound 0.00316 µM) 46.6% | viability, T/C (second compound 3.16 µM, first compound 0.01 µM) 58.2% | viability, T/C [9] 51.7% | viability, T/C [10] 42% | viability, T/C (second compound 10 µM, first compound 0.000316 µM) 39% | viability, T/C (second compound 10 µM, first compound 0.001 µM) 38.7% | viability, T/C (second compound 10 µM, first compound 0.00316 µM) 43.8% | viability, T/C (second compound 10 µM, first compound 0.01 µM) 33% | viability, T/C [11] 50.5% | viability, T/C [12] 38.5%
> 0.1 µM: IC50 (second compound 0.0316 µM) | IC50 (second compound 0.1 µM) | IC50 (second compound 0.316 µM) | IC50 (second compound 1 µM)

CC(C)NCC(C(=O)N1CCN(c2ncnc3c2C(C)CC3O)CC1)c1ccc(Cl)cc1 (stereo unspecified) + Cc1nc(NC(=O)N2CCCC2C(N)=O)sc1-c1ccnc(C(C)(C)C(F)(F)F)c1
0.328 µM: IC50 (second compound 10 µM)
> 10 µM: IC50 (second compound 0.1 µM)
0.0796 µM: IC50 (second compound 3.16 µM)
1.29 µM: IC50 (second compound 1 µM)
1.84 µM: IC50 (second compound 0.316 µM)
2.02 µM: IC50 (second compound 0.0316 µM)
inactive: viability, T/C [1] 80.2% | viability, T/C [2] 104% | viability, T/C [13] 75.9% | viability, T/C [14] 61.5% | viability, T/C [15] 44.3% | viability, T/C [16] 37.4% | viability, T/C [3] 89.2% | viability, T/C [4] 101% | viability, T/C [17] 82.5% | viability, T/C [18] 50.5% | viability, T/C [19] 61% | viability, T/C [20] 44.2% | viability, T/C [5] 94.7% | viability, T/C [6] 80.5% | viability, T/C [21] 86.2% | viability, T/C [22] 55.8% | viability, T/C [23] 49.4% | viability, T/C [24] 38.5% | viability, T/C [7] 70% | viability, T/C [8] 67.4% | viability, T/C [25] 72.8% | viability, T/C [26] 54.4% | viability, T/C [27] 33.6% | viability, T/C [28] 35.8% | viability, T/C [9] 74.9% | viability, T/C [10] 43% | viability, T/C [29] 46.5% | viability, T/C [30] 52.8% | viability, T/C [31] 39.9% | viability, T/C [32] 27.8% | viability, T/C [11] 47.9% | viability, T/C [12] 52.5% | viability, T/C [33] 51% | viability, T/C [34] 35.9% | viability, T/C [35] 39.3% | viability, T/C [36] 32.2%

CC(Cn1ccc(-c2ccc(C#N)c(Cl)c2)n1)NC(=O)c1cc(C(C)O)[nH]n1 (stereo unspecified) + CC(Nc1ncnc2nc[nH]c12)c1cc2cccc(Cl)c2c(=O)n1-c1ccccc1
inactive: viability, T/C [1] 98.6% | viability, T/C [2] 93.4% | viability, T/C [13] 97.3% | viability, T/C [14] 111% | viability, T/C [15] 117% | viability, T/C [16] 108% | viability, T/C [3] 124% | viability, T/C [4] 85.2% | viability, T/C [17] 88.7% | viability, T/C [18] 99% | viability, T/C [19] 93.9% | viability, T/C [20] 113% | viability, T/C [5] 94.3% | viability, T/C [6] 116% | viability, T/C [21] 116% | viability, T/C [22] 98.2% | viability, T/C [23] 74.5% | viability, T/C [24] 102% | viability, T/C [7] 110% | viability, T/C [8] 105% | viability, T/C [25] 128% | viability, T/C [26] 102% | viability, T/C [27] 103% | viability, T/C [28] 96% | viability, T/C [9] 94.5% | viability, T/C [10] 77.3% | viability, T/C [29] 105% | viability, T/C [30] 91.2% | viability, T/C [31] 94.6% | viability, T/C [32] 104% | viability, T/C [11] 79.7% | viability, T/C [12] 69.8% | viability, T/C [33] 82% | viability, T/C [34] 68.4% | viability, T/C [35] 87.6% | viability, T/C [36] 97.8%
> 10 µM: IC50 (second compound 0.0316 µM) | IC50 (second compound 0.1 µM) | IC50 (second compound 0.316 µM) | IC50 (second compound 1 µM) | IC50 (second compound 3.16 µM) | IC50 (second compound 10 µM)
